One series addresses T1, human CCR3 (Homo sapiens, UniProt P51677).
T1 construct: expressed in transfected cells; membranes
T1 sequence (P51677 1-355): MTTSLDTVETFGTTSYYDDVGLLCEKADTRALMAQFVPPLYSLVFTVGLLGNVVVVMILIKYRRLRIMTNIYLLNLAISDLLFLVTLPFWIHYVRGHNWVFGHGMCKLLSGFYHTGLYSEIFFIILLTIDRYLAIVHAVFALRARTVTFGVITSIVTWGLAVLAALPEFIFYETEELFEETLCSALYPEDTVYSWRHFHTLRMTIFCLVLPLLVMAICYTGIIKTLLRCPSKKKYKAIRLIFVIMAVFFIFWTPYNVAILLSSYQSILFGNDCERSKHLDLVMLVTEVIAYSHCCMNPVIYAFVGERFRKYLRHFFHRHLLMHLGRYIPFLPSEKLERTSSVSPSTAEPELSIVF
Nature of the series: binding of [125I]-human eotaxin to human CCR3 (SPA, membranes of RBL-2H3 cells expressing CCR3). Conditions: [125I]-human eotaxin 50 pM, 4 hours at room temperature; read-out: IC50 (concentration of test compound at which 50% inhibition of eotaxin binding to CCR3 occurs). On the procedure:
In this assay the effect of the compounds of the present invention on the binding of human eotaxin to human CCR3 is determined. Recombinant cells expressing human CCR3 are captured by wheatgerm agglutinin (WGA) polyvinyltoluidene (PVT) SPA beads (available from Amersham), through a specific interaction between the WGA and carbohydrate residues of glycoproteins on the surface of the cells. [^125I]-human eotaxin (available from Amersham) binds specifically to CCR3 receptors bringing the [^125I]-human eotaxin in close proximity to the SPA beads. Emitted â-particles from the [^125I]-human eotaxin excite, by its proximity, the fluorophore in the beads and produce light.
Preparation of Assay Buffer 5.96 g HEPES and 7.0 g sodium chloride are dissolved in distilled H2O and 1 M aq. CaCl2 (1 ml) and 1 M aq. MgCl2 (5 ml) are added. The pH is adjusted to 7.6 with NaOH and the solution made to a final volume of 1 L using distilled H2O. 5 g of bovine serum albumin and 0.1 g NaN3 are dissolved in the solution and the resulting buffer stored at 4° C. […]
The assay is performed in a final volume of 250 μl per well of an Optiplate™ microplate (ex Canberra Packard). […] The resulting scintillations are counted using a Canberra Packard TopCount™ scintillation counter, each well being counted for 1 minute. […]

The term melting point denotes the temperature of the solid-liquid transition. Regarding `O=C(C=C1CCN(Cc2ccc(F)cc2)CC1)NCc1ccc(F)c(F)c1` [Example 1, N-(3,4-Difluoro-benzyl)-2-[1-(4-fluoro-benzyl)-piperidin-4-ylidene]-acetamide], the melting point lay in the range of 83 to 85 °C.
For the molecule `O=C(C=C1CCN(CCc2ccc(F)cc2)CC1)NCc1ccc(F)c(F)c1` [Example 17, N-(3,4-Difluoro-benzyl)-2-{1-[2-(4-fluoro-phenyl)-ethyl]-piperidin-4-ylidene}-acetamide], the melting point was in the range of 117 to 120 °C. Also, the IC50 at human CCR3 is roughly 0.2 µM.

The values are drawn from patent US20100048633A1, “Piperidine-4-acrylamides” (priority 2007, published 2010).
